Reference: patent US20180055838A1, “METHODS AND COMPOSITIONS FOR TREATMENT OF DERMAL AND EPIDERMAL WOUNDS” (THE PENN STATE RESEARCH FOUNDATION, priority 2011, published 2018)

Key:
[1] = tested on: basal cells of the cutaneous epithelium; assay: DNA synthesis (BrdU labeling index) in stratum basale of unwounded dorsal skin; assay type: in vivo; details: for increase of BrdU incorporation relative to labeling index of DB animals: DB (T1D) rats
Method: Male Sprague-Dawley rats (˜150 g) were purchased from Charles River Laboratories (Wilmington, Mass.), and housed under standard laboratory conditions; water and food were available ad libitum. All investigations conformed to the guidelines of The Pennsylvania State University College of Medicine Institutional Animal Care and Use Committee.
Type 1 diabetes (T1D) was induced by intraperitoneal (i.p.) injections of 40 mg/kg streptozotocin (STZ, Sigma, St. Louis, Mo.), on two consecutive days (Klocek et al., Journal of Ocular Pharmacology and Therapeutics, 23:89-102 (2007); Havel et al., Diabetes, 49:244-252 (2000)). This regimen produced insulin-dependent diabetes in 100% of the animals within 72-96 h; rats with blood glucose levels measuring >350 mg/dl were considered diabetic (DB). Blood glucose levels were monitored from the tail vein using a True Track® Smart System glucometer (Home Diagnostics, Ft. Lauderdale, Fla.) before receiving STZ, and at 1, 4, and 8 weeks following induction of hyperglycemia. Control animals receiving an injection of an equivalent volume of sterile saline were termed “normal”. All rats were weighed weekly.
Normal (n=24) and diabetic (DB) rats (n=24) were randomized 8 weeks after injections of STZ or saline, and received NTX (Sigma-Aldrich, Indianapolis, Ind.) systemically (30 mg/kg, i.p. or subcutaneous (s.c.) at 0800 h) or topically 3 times daily at 0700, 1200, and 1700 h. For topical applications, NTX was dissolved in Sorenson's phosphate buffer (SPB), KY jelly (KYJ) (K-Y, Personal Products Company, McNeil-PPC, Inc., Skillman, N.J.), Neutrogena moisturizing cream (MCN) (Neutrogena Corporation, Los Angeles, Calif.), or DMSO (VWR, Philadelphia, Pa.). NTX was dissolved in sterile water at dosages of 10^−4 M, 10^−5 M or 10^−6 M, and thoroughly mixed into each of the carriers (1:1, v/v); 0.5 ml of saline mixed into corresponding carriers served as the respective vehicle control.
On the day preceding NTX or vehicle treatment, an 8×8 cm area was shaved on the dorsal surface of each rat and 4 circles (approximately 20 mm in diameter) were made with a permanent marker to denote locations of subsequent topical applications and/or skin collection. Using an applicator stick, one ml of carrier containing NTX or vehicle was placed within the demarked areas. Applications of NTX formulations were randomized to different positions. Each animal received NTX in 3 different concentrations, as well as the vehicle, in the same carrier; some rats received only saline in a carrier or were untreated.
To assess cells undergoing DNA synthesis, rats were injected i.p. with 100 mg/kg BrdU (Sigma-Aldrich) 3 and 6 h before euthanasia with Euthasol (Virbac, Fort Worth, Tex.). Appropriate regions of the skin were removed, fixed in 10% buffered formalin, and paraffin sections (6 μm) were stained with anti-BrdU-POD (Invitrogen, Carlsbad, Calif.). BrdU stained cells in the basal layer of the epithelium were counted in four 0.1 mm grids at 250× magnification using 2 sections/specimen; 3 tissue specimens were analyzed for each dosage of NTX in each carrier.

[2] = tested on: full-thickness cutaneous wound; assay: Healing of 5-mm full-thickness cutaneous wound in Type 2 diabetic (db/db) mice; assay type: in vivo; details: 10^−5 M NTX in moisturizing cream 3 times daily, by days 6, 13, and 15, p<0.05
Text: To study the effects of opioid receptor antagonists on wound healing in a Type 2 diabetic and general obesity model, wound healing was compared between wild type and Lepr^db (also referred to as db/db) mutant mice. Mice homozygous for the diabetes spontaneous mutation (Lepr^db) become identifiably obese around 3 to 4 weeks of age. Plasma insulin levels become elevated beginning at 10 to 14 days and blood sugar levels become elevated beginning at four to eight weeks. These mice show delayed wound healing compared to wild type mice.
Mice were purchased from Jackson Laboratories and housed under standard laboratory care. Body weights and blood glucose levels of 8-week old Type 2 diabetic (db/db) mice and wild type C57Bl/6 mice were obtained (FIG. 9). Tail vein blood was obtained and glucose levels were measured by a TrueTrak glucometer. Values represent means±SEM; n=6-10 mice/treatment group.
To study wound healing, a 5-mm circular full-thickness cutaneous wound was created on the dorsum of db/db and wild type mice. Db/db mice were treated with either 10^−5 M Naltrexone (NTX) in moisturizing cream (vehicle), or vehicle alone; wild type mice received vehicle only. Applications were made 3 times daily for 15 days.

[3] = tested on: full-thickness cutaneous wounds; assay: Closure of 6 mm full-thickness cutaneous wounds (residual wound area, contraction, re-epithelialization); assay type: in vivo, rat; details: Normal rats, 10^−5 M NTX in MCN; for reduction of wound area relative to MCN+vehicle: within 3 days
Method: In a second set of experiments, Normal (n=70) and DB (n=70) Sprague-Dawley rats, 12-14 weeks of age and 8 weeks after injection of STZ, were subjected to wounding. Eight rats/treatment regimen were evaluated over the course of 3 independent experiments. The dorsum of the rat was shaved, and areas (20 mm in diameter) outlined with a marker in order to consistently position the wounds. Animals were anesthetized by i.p. injection of ketamine (60 mg/kg), xylazine (10 mg/kg), and acepromazine (1 mg/kg), and a 6 mm full-thickness circular excisional skin wound was made in the center of the demarked area to the level of the panniculus muscle using an Acupunch (Acuderm Inc., Fort Lauderdale, Fla.). Three wounds per rat were standardized such that the first wound was made 5 cm posterior to the occipital notch at the posterior of the animal's cranium and 1 cm off the midline. The second wound was created 7 cm posterior to the occipital notch at the posterior of the animal's cranium and 1 cm off the midline on the opposite side from the first wound. The third wound was placed 9 cm posterior to the occipital notch at the base of the animal's cranium and 1 cm off the midline on the same side as the first wound. To minimize the effects of diurnal rhythm, surgery was performed between 0800-0900 h. All wounds were left uncovered.
Topical administration of ˜0.1 ml of the carrier containing NTX or vehicle, using the dosage and carriers selected from the first experiment, was initiated immediately after wounding (0800 h for those rats receiving agents only once per day, and at 0800, 1200, and 1600 h for those animals receiving 3 applications daily); control rats received the carrier with vehicle either once or three times daily. Some animals in the Normal and DB groups were wounded but untreated.
Wound size was monitored by capturing images with a digital camera mounted on a tripod set 20 cm from the surface; a ruler was photographed with each wound. Animals were manually restrained without anesthesia for photography. Photographs were taken immediately after surgery and on days 3, 5, 7, 9, and 11. The area of each wound was analyzed using Image ProPlus 6.2 (Media Cybernetics, Inc., Bethesda, Md.). The percent residual wound was calculated at each time point for every rat. At 8 days, wound closure also was quantified according to Pietramaggiori and colleagues (Pietramaggiori et al., J Surg Res 160:169-177 (2010)) by measuring contraction, re-epithelialization, and open wound as a percentage of the original wound area. The sum of contracted, re-epithelialized, and open wound area was defined as equaling 100% of the original wound size (Yannas I., Tissue and Organ Regeneration in Adults. New York: Springer, 2001).

[4] = tested on: epithelium covering the granulation tissue; assay: Histopathology and epithelial thickness of wounded region 20 days after wounding; assay type: in vivo, rat
Method: On day 20 following creation of the wound, some rats were euthanized and the original wound areas as well as tissue peripheral to the wound that encompassed the 20 mm diameter circle were excised and fixed in 10% neutral buffered formalin. Tissues were processed for paraffin embedding; sections were stained with hematoxylin and eosin. The thickness of the epithelium covering the granulation tissue was measured with an ocular micrometer. Five measures/section from 7-8 wounds/treatment group were evaluated at 250× magnification.

human and animal cells = human and animal cells (Cheng 2009); cited from earlier work
[5] = literature reports (Stinchcomb 2002; Krishman 2010); cited from earlier work

O=C1CC[C@@]2(O)[C@H]3Cc4ccc(O)c5c4[C@@]2(CCN3CC2CC2)[C@H]1O5 [NTX, 17-(cyclopropylmethyl)-4,5α-epoxy-3,14-dihydroxymorphinan-6-one]
increase of BrdU incorporation relative to labeling index of DB animals ([1]; systemic 30 mg/kg NTX i.p.): 181%
increase of BrdU incorporation relative to labeling index of DB animals ([1]; systemic 30 mg/kg NTX s.c.): 59%
effect on BrdU incorporation ([1]; DB rats, topical NTX 10^−4 and 10^−5 M in SPB): no effect
elevation of labeling index from baseline levels ([1]; DB rats, topical NTX at all 3 dosages in KYJ): 103-147%
elevation of labeling index from baseline levels ([1]; DB rats, topical NTX at all 3 dosages in MCN): 85-89%
efficacy on BrdU labeling ([1]; DB rats, topical NTX combined with DMSO, only at 10^−4 and 10^−5 M): efficacious
elevation of BrdU labeling relative to labeling index of Normal rats ([1]; Normal rats, systemic 30 mg/kg NTX i.p.): 172%
elevation of BrdU labeling relative to labeling index of Normal rats ([1]; Normal rats, systemic 30 mg/kg NTX s.c.): 51%
elevation of DNA synthesis from baseline levels ([1]; Normal rats, topical NTX 10^−4 M to 10^−6 M in any of the 4 carriers (SPB, DMSO, KYJ, MCN)): 43-132%
increase in BrdU incorporation in the skin compared to baseline ([1]; Normal rats, topical NTX in SPB): 43-56%
change of BrdU incorporation from baseline ([1]; Normal rats, topical NTX, different dosages, in MCN): 73-132%
toxicity of the effects on cell proliferation ([1]; T1D and normal rats, systemic or topical): not toxic
wound healing (percent residual defect) relative to db/db mice treated with vehicle only [2]: significant improvement in would healing
reduction of wound size relative to MCN+vehicle ([3]; one time daily, days 3, 5, 7, and 9): 31-82%
reduction of wound area relative to MCN+vehicle ([3]; single daily regimen): 30%
reduction of wound size relative to MCN+vehicle ([3]; three times daily, days 3, 5, 7, and 9 (day 9 not significant)): 11-23%
reduction of wound area relative to MCN+vehicle ([3]; three times daily): 11%
thickness of the epithelium relative to Normal animals receiving vehicle (24.6±1.6 μm) ([4]; DB rats subjected to NTX, day 20 (DB vehicle had a 44% reduction)): did not differ
general structure of the epithelium (e.g., absence of necrotic cells) ([4]; Normal and DB rats receiving vehicle or NTX, 20 days following surgery): appeared to be similar
thickness of the epithelium relative to Normal animals receiving vehicle (24.6±1.6 μm) ([4]; Normal rats treated with NTX, day 20): did not differ
entry into cells (human and animal cells): rapidly by passive diffusion
penetration of the skin [5]: poor penetrator of the skin
